Article PMC9489722, “Identification and development of a subtype-selective allosteric AKT inhibitor suitable for clinical development” (Scientific Reports, 2022)
Read-outs that look alike come from different tables or passages of the source.

Experiments:
Kinetic solubility assay = type: physicochemical; conditions: PBS pH 7.4, read-out: Kinetic solubility pH7.4
Description: Compound solubility was tested in Dulbecco A PBS buffer at pH7.4 in Millipore MultiScreen Solubility Filter plates. Analysis was carried out on a Bioteck Synergy 4 plate reader (240–400 nm) and solubility quantified against a 5-point calibration curve.

LogD7.4 assay = type: physicochemical; conditions: octanol/PBS buffer; octanol/PBS pH 7.4
Description: Compounds (100 µM) were shaken at 300 rpm at room temperature for 4 h in a biphasic system of octanol and PBS buffer pH 7.4 in a 96-well plate in triplicate. The relative drug concentration in each phase was then determined by the peak area measurement from LC-UV analysis on an Agilent 1260 chromatography instrument (UV detection at 254 nm and 220 nm). LogD is calculated as follows: LogD = Log[peak area of compound in octanol x injection volume of buffer phase/peak area of compound in buffer x injection volume of octanol phase].

[1] = In vitro microsomal stability, rat; type: in vitro ADME; conditions: pH 7.4; rat liver microsomes; read-out: rat LM CLint
Description: (§1) Compounds (final concentration = 1 µM; final DMSO concentration = 0.1%) were incubated in 0.1 M phosphate buffer at pH 7.4 with liver microsomes (human, mouse, rat or dog; 0.5 mg of protein/mL) at 37 °C. Reactions were started by addition of NADPH in 0.1 M phosphate buffer pH 7.4 (final concentration 1 mM). Reactions were quenched by addition of ice-cold methanol and frozen. The supernatants were analysed by LC/MS/MS on a Waters Acquity I-Class coupled to a Waters Xevo TQD mass spectrometer. A Waters BEH C18 2.1 × 50 mm 1.7 µm column was used and mobile phases consisted of water and methanol containing 0.1% formic acid as modifier. Analysis was by multiple reaction monitoring and conditions were optimised for each test compound.

CYP 2C9 = CYP 2C9 (Homo sapiens, UniProt P11712); assay: CYP2C9 inhibition; type: in vitro ADME
[2] = Pharmacokinetic study in Sprague–Dawley rats; type: in vivo, rat; conditions: male SD rats
Description: Eight rats were purchased and 6 used on the PK study (3 per administration route). The remaining rats were purchased in case of mis-dosing events and were used to obtain blank biological matrix. Compounds were administered as single i.v. doses at 1 mg free base/kg or single oral doses at 5 mg free base/kg, with blood samples obtained from three rats per dose route, at 9 time-points out to 24 h post-dose. Both the intravenous and oral doses were prepared at a concentration of 1 mg free base/mL in a mixture of 5% DMSO/95% saline. Blood samples were centrifuged to give plasma. Plasma proteins were precipitated, and compounds extracted by addition of six volumes of acetonitrile containing warfarin as internal standard. Samples were centrifuged at 4000 rpm for 30 min and the supernatants were analysed on a Waters Xevo TQ mass spectrometer. Multiple Reaction Monitoring (MRM) methods were developed for each test compound using Waters IntelliStart software.
Quantification of test compounds was by extrapolation from calibration lines prepared in control rat plasma and analysed concurrently with experimental samples.
Non-compartmental analysis was performed using the software package PK Solutions 2.0 from Summit Research Services to produce the PK parameters. AUC values were calculated by the trapezoidal method.
Oral bioavailability was estimated by comparison of the drug concentration/time AUCs for individual animals after oral dosing with the mean AUC from i.v. doses.

[3] = In vitro proliferation assay (CellTiter-Glo), normal cell lines; type: cell-based; conditions: human, normal cell lines (4 of the 6 tested; lines not named); 4 of the 6 normal cell lines tested; read-out: cytotoxicity EC50, normal cell lines
Description: MCF-7, T47D, NCI-H460, HCT116, LNCaP, A431, PC3, PANC-1, A549, HT29M, SKOV-3, Du145, HMEC-1, Hs888Lu, Hela, MDA-MB-231 and SW480 cells were obtained from American Type Culture Collection (ATCC). A2780, PNT2, U251MG, HFFF2 and Fr2 cells were obtained from Public Health England European Collection of Authenticated Cell Cultures (Phe ECACC). InMyoFib and NHLF cells were acquired from Lonza. Cells were then incubated with increasing concentration of inhibitor (1 nM to 100 µM) for 72 h at 37 °C. Cell viability was determined using the CellTiter-Glo Luminescent Cell Viability Assay (Promega). IC50 values were derived as previously stated.

[4] = system: pAKT (Ser473) in MCF-7 cells; assay: phospho-AKT (S473) ELISA in MCF-7 cells; type: cell-based; conditions: Homo sapiens, MCF7, 24h treatment, read-out: EC50 inhibition of phosphorylation of AKT
Description: (§2) Cells were then washed with PBS and lysed. The subsequent supernatant was assayed using a GSK3β (pS9) (Invitrogen, Life Technologies) ELISA. Phospho-AKT levels were detected using the phospho-AKT (S473) immunoassay (R&D Systems) as per manufacturer’s protocol. Percentage inhibition of phosphorylation status was calculated by comparing phospho-AKT levels to total AKT levels with each treatment and IC50 values derived using non-linear regression on GraphPad Prism.

[5] = In vitro microsomal stability, human; type: in vitro ADME; conditions: pH 7.4; human liver microsomes; read-out: human LM CLint
Description: as §1

[6] = system: pGSK3β in PC3 prostate cancer cells; assay: pGSK3β ELISA in PC3 cells; type: cell-based; conditions: for IC50: Homo sapiens, PC-3, PC3 cells, 24 h
Description: as §2

[7] = system: pAKT^S473 in A549 tumours; assay: PK/PD study in A549 lung cancer xenograft model; type: in vivo, mouse; conditions: single oral dose 100 mg/kg, 24-h time period, A549 xenograft
Description: In order to understand the relationship between ALM301 plasma exposure and in vivo AKT target engagement over time, a PK/PD study was carried out in a A549 lung cancer xenograft model. […] ALM301 plasma concentrations and levels of pAKT^S473 in tumours were measured using western blotting and immunohistochemistry (Fig. 4A, B and Supplementary Fig. S4A–C). […] Tumour sections were collected following one dose of either vehicle or 30 mg/kg of ALM301 at noted time intervals (1 h, 2 h, 4 h, 8 h, 24 h). Tissue sections were subsequently stained with pAKT antibody (brown) staining and scored for pAKT staining using a scale of 1–4 (low to high) (Fig. 4B).
For pharmacokinetic/pharmacodynamic (PK/PD) studies in A549 lung cancer xenografts, 150 male BALB/c nude mice aged 6–8 weeks and weighing approximately 18–22 g were inoculated with 1 × 10^7 A549 tumour cells (ATCC) in 0.1 mL of PBS with Matrigel (1:1) subcutaneously into the right flank. Once the mean tumour size reached 150–250 mm^3, the mice were randomised into treatment groups (18 mice per group) using a randomised block design (first, experimental animals are divided into homogeneous blocks according to their initial tumour volume; secondly, within each block, randomisation of animals to treatment groups was conducted so that each animal had the same probability of being assigned to a given treatment, thereby reducing systematic bias). Group sizes were devised based on previous pilot studies using a minimal numbers approach of n = 3 tumours per time-point (6 time-points per dose level). […] Tumour size was measured twice weekly in two dimensions using a caliper, and the volume expressed in mm^3 using the formula: V = 0.5 (a × b^2), where a and b are the long and short diameters of the tumour, respectively.

AKT2 = target: T1, AKT2 (Homo sapiens, UniProt P31751); assay: AKT2 biochemical kinase assay (FP iMAP); conditions: read-out: AKT IC50, AKT2
T1 construct: purchased Signal Chem
Description: (§3) Biochemical analysis was performed using kinases obtained from Millipore (AKT1, ∆AKT1, ∆AKT2, ∆AKT3) and Signal Chem (AKT2 and AKT3). […] (Molecular Devices) against the three isoforms of AKT and their PH domain null mutants. Compounds were dissolved in DMSO prior to screening at 14 point titration series in the range (50 µM–50 pM). Fluorescence polarisation was measured using a Biotek Synergy 4 Hybrid microplate reader. Percentage inhibition of kinase activity was calculated and IC50 values derived using non-linear regression on GraphPad Prism. Competition of ALM301 with ATP was determined using AKT1 under increasing ATP concentrations up to 1000 µM.

AKT1 = target: T2, AKT1 (Homo sapiens, UniProt P31749); assay: AKT1 biochemical kinase assay (FP iMAP); conditions: for IC50: read-out: AKT IC50, AKT1
T2 construct: purchased Millipore
Description: as §3

AKT3 = target: T3, AKT3 (Homo sapiens, UniProt Q9Y243); assay: AKT3 biochemical kinase assay (FP iMAP); conditions: read-out: AKT IC50, AKT3
T3 construct: purchased Signal Chem
Description: as §3

MCF-7 cells = conditions: ALM301 in combination with Tamoxifen
Description: A synergy screen, using ALM301 and combination partners in a matrix design, was conducted to identify compounds which are synergistic in combination with ALM301. Synergy was calculated using the median concentration effect method using Calcusyn software as previously described.

MCF-7 xenografts = assay: Efficacy study in MCF-7 breast cancer xenograft model; type: in vivo; conditions: MCF-7 xenograft, tamoxifen alone 5 mg/kg q.d. p.o.
Description: For efficacy in MCF-7 xenografts, 150 SCID female mice aged 6–8 weeks and weighing approximately 18–22 g were implanted with 1 × 10^7 MCF-7 tumour cells (ATCC) subcutaneously in the right flank. […] Once mean tumour size reached approximately 150 mm^3, mice were randomised to either control or treatment groups (n = 10/group) using a randomised block approach. Groups sizes were devised based on past experience of the provider. […] Tumour size was measured twice weekly in two dimensions using a caliper, and the volume expressed in mm^3 using the formula: V = 0.5 (a x b^2), where a and b are the long and short diameters of the tumour, respectively.

[8] = PBS buffer, pH 7.4, aqueous buffer, kinetic from dmso stock

T2 sequence (P31749 whole entry): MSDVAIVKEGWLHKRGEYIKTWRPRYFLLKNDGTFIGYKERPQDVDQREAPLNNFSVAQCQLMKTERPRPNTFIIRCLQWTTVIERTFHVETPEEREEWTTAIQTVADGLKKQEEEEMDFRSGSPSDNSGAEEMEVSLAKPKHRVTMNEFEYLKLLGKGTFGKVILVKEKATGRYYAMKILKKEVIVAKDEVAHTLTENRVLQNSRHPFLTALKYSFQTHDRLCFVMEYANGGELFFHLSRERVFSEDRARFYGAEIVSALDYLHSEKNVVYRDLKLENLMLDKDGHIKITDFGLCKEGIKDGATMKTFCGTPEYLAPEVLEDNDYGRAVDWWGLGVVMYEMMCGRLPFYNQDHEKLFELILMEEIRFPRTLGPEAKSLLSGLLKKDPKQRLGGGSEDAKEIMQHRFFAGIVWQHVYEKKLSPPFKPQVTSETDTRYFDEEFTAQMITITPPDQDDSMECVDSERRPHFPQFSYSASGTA
T1 sequence (P31751 whole entry): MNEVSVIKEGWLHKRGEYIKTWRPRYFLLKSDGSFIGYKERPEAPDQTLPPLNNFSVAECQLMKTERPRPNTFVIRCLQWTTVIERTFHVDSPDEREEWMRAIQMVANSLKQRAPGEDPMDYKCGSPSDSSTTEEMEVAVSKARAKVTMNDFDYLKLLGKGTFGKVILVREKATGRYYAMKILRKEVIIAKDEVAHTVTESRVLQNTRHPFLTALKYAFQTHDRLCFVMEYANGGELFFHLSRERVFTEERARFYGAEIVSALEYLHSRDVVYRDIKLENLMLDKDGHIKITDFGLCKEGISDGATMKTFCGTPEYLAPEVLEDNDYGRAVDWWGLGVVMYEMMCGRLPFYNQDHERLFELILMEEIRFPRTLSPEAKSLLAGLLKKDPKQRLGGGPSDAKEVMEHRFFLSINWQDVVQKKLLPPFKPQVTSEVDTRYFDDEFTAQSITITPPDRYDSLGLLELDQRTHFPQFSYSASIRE
T3 sequence (Q9Y243 whole entry): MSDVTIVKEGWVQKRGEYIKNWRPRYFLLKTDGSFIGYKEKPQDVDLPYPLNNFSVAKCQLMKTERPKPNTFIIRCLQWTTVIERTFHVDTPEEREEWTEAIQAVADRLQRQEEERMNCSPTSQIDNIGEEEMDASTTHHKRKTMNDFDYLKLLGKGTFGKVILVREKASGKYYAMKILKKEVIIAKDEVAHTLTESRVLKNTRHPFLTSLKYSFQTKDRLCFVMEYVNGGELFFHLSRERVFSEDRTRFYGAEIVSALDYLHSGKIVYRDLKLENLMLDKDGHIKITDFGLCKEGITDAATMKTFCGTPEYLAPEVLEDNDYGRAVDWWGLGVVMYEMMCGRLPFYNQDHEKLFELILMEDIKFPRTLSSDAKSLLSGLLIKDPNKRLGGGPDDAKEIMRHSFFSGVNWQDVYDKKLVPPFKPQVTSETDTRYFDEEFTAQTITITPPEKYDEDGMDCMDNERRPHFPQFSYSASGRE
CYP 2C9, sequence (P11712 whole entry): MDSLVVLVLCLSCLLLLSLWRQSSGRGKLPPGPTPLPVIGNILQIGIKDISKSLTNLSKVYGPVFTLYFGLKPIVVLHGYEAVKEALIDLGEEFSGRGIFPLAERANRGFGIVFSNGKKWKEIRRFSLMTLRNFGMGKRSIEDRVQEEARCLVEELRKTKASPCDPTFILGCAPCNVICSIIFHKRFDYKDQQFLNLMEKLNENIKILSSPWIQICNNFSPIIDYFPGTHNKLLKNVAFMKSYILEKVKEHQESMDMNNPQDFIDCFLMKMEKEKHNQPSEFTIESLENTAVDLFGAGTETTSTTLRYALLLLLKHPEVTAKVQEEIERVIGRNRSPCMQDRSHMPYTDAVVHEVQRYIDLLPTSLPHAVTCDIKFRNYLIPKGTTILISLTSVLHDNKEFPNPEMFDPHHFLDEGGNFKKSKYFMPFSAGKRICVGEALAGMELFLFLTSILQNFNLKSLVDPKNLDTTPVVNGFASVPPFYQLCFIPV

With `NC1(c2ccc(-c3nc4ccn5c(=O)[nH]nc5c4cc3-c3ccccc3)cc2)CCC1` [MK-2206, reference compound] the solubility kinetic (Kinetic solubility assay; [8]) was 190 µM, the logD at 4 h (LogD7.4 assay) was 2.4 and the microsomal CLint at 1 µM [1] was 13 µL/min/mg. For the same compound, the IC50 (CYP 2C9) was 19000 nM, the clearance ([2]; Sprague-Dawley, rat, plasma, iv, 1 mg/kg i.v., read-out: Rat PK CL) was 24 mL/min/kg and the Vd ([2]; Sprague-Dawley, rat, plasma, iv, 1 mg/kg i.v., read-out: Rat PK Vd) was 12 L/kg. The “Rat PK F” value ([2]; 1 mg/kg i.v. and 5 mg/kg p.o., AUC 0-∞) was 12%, the EC50 at 72 h [3] was less than 20000 nM and the EC50 [4] was 2550 nM. The microsomal CLint at 1 µM [5] was 20 µL/min/mg, the IC50 [6] was 120 nM and the “pAKT^S473 in tumours” value [7] was “incomplete inhibition”.
For `NC1(c2ccc(-c3nc4c(cc3-c3ccccc3)NC(=O)CO4)cc2)CCC1` [compound 1], the solubility kinetic (Kinetic solubility assay; [8]) was 206 µM, the IC50 (AKT2) was 3300 nM and the “AKT1 ligand efficiency (LE)” value (AKT1) was 0.28. For the same compound, the IC50 (AKT1) was 2500 nM, the IC50 [6] was 3000 nM and the IC50 (AKT3) was 6100 nM.
Compound `CN1C(=O)COc2nc(-c3ccc(C4(N)CCC4)cc3)c(-c3ccccc3)cc21` [compound 2] has a solubility kinetic (Kinetic solubility assay; [8]) greater than 190 µM, a solubility kinetic (Kinetic solubility assay) of 191 µM and an IC50 (AKT2) of 400 nM. The “AKT1 ligand efficiency (LE)” value (AKT1) was 0.34, the IC50 (AKT1) was 100 nM and the IC50 [6] was 100 nM. For the same compound, the “potency improvement in pGSK3β decrease compared with des-N-methyl analogue 1” value ([6]; PC3 prostate cancer cells) was “ca. 30 fold” and the IC50 (AKT3) was 5600 nM.
In the case of `CC/C(=C(\c1ccccc1)c1ccc(OCCN(C)C)cc1)c1ccccc1` [tamoxifen], the “combination effect at ED50” value (MCF-7 cells) is reported as “Synergy”, the “combination effect at ED75” value (MCF-7 cells) is reported as “Synergy” and the “combination effect at ED90” value (MCF-7 cells) is reported as “Strong Synergy”. For the same compound, the tumour regression (MCF-7 xenografts) was 24%.
